Assay [1] has as its target D3 receptor (Homo sapiens (Human), UniProt P35462). The assay can be described thus: Radioligand binding ([3H]-spiperone) to cloned D3 receptor expressed in HEK-293 EBNA cells. Particulars: HEK293 EBNA membranes, 0.5 nM [3H]-spiperone.
The target in assay [2] is D2 receptor (Homo sapiens (Human), UniProt P14416). The assay can be described thus: Radioligand binding ([3H]-spiperone) to cloned D2 receptor expressed in HEK-293 EBNA cells. Particulars: HEK293 EBNA membranes, 0.7 nM [3H]-spiperone.
Sequence of D2 receptor (P14416 whole entry): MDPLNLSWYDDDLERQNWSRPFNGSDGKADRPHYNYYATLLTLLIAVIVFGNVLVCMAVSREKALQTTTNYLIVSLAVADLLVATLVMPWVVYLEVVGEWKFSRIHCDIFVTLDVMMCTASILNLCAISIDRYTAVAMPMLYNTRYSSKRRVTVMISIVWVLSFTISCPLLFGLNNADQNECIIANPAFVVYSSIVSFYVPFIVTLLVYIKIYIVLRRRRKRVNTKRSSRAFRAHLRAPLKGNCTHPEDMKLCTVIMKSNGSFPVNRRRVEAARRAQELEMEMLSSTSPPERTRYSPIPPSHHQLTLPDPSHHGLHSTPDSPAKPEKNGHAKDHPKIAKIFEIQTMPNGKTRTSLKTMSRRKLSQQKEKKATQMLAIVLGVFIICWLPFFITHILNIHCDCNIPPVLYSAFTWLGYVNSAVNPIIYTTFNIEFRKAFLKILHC

Sequence of D3 receptor (P35462 whole entry): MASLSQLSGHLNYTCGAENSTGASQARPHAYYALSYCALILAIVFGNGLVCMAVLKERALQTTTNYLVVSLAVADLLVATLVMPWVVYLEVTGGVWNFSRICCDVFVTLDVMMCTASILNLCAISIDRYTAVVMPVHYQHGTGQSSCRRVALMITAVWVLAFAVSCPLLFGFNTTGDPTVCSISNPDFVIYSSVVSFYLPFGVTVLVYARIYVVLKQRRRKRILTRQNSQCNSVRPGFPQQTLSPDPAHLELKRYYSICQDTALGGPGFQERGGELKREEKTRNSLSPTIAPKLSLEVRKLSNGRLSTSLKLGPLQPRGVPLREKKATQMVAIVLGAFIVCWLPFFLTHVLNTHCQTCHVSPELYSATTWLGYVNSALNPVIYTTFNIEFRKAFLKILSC

In general, Ki refers to a dissociation constant, usually derived from enzyme kinetics or from competition with a known ligand. A low value points to higher affinity. `O=S(=O)(N[C@H]1CC[C@H](CCN2CCN(c3cccc4c3OCO4)CC2)CC1)N1CCOCC1` [Example 77, Morpholine-4-sulfonic acid-trans-N-{4-[2-(4-benzo[1,3]dioxol-4-yl-piperazin-1-yl)-ethyl]-cyclohexyl}-amide]: the results for the Ki in assay [1] and in assay [2] were 0.00129 µM and 0.063 µM, respectively.
On to `[2H]C1([2H])Oc2cccc(N3CCN(CC[C@H]4CC[C@H](NC(=O)COC)CC4)CC3)c2O1` [Example 79, N-trans-{4-[2-(4-Benzo(2,2-D2) [1,3]dioxol-4-yl-piperazin-1-yl)-ethyl]-cyclohexyl}-2-methoxy-acetamide], for which the Ki stood at 0.00498 µM in assay [1] and 0.146 µM in assay [2].
Regarding `[2H]C1([2H])Oc2cccc(N3CCN(CC[C@H]4CC[C@H](NC(=O)C(C)C)CC4)CC3)c2O1` [Example 80, N-trans-{4-[2-(4-Benzo(2,2-D2) [1,3]dioxol-4-yl-piperazin-1-yl)-ethyl]-cyclohexyl}-isobutyramide], the inhibitory constant (Ki) stood at 0.00223 µM in assay [1] and 0.105 µM in assay [2].
For `[2H]C1([2H])Oc2cccc(N3CCN(CC[C@H]4CC[C@H](NC(=O)C(C)(C)O)CC4)CC3)c2O1` [Example 81, N-trans-{4-[2-(4-Benzo(2,2-D2)-[1,3]dioxol-4-yl-piperazin-1-yl)-ethyl]-cyclohexyl}-2-hydroxy-2-methyl-propionamide], the inhibitory constant (Ki) is 0.00628 µM in assay [1] and 0.0972 µM in assay [2].
Take `[2H]C1([2H])Oc2cccc(N3CCN(CC[C@H]4CC[C@H](NC(=O)[C@@H](C)OC)CC4)CC3)c2O1` [Example 82, (R)—N-trans{4-[2-(4-Benzo(2,2-D2)-[1,3]dioxol-4-yl-piperazin-1-yl)-ethyl]-cyclohexyl}-2-methoxypropanamide]: the results for the inhibition constant Ki in assay [1] and in assay [2] were 0.00573 µM and 0.148 µM, respectively.

(Values after patent US8722683B2, “Benzodioxole piperazine compounds” (Hoffmann LA-Roche Inc., priority 2011, dated 2014).)
